Values quoted from earlier work as cited in publication PMC13242511, “Disrupting Notch signalling by a small molecule inhibiting dihydroorotate dehydrogenase activity” (Scientific Reports, 2026).

Legend:
Drosophila melanogaster = settings: cited from earlier work
[1] = tested on: Notch1 ICD-induced mouse model of T-ALL; design: method as in PMID 37648673; settings: cited from earlier work

| Compound | phenotype after chemical DHODH inhibition (Drosophila melanogaster) | outcome in Notch1 ICD-induced mouse model of T-ALL [1] |
| --- | --- | --- |
| Cc1c(C(=O)O)[nH]c(=O)[nH]c1=O [5-methyl orotate] | phenocopied Notch mutations |  |
| Cc1c(-c2ccc(-c3ccccc3F)cc2)nc2ccc(F)cc2c1C(=O)O [brequinar] |  | curative |
